Test results as given in patent US20080020973A1 (priority 2004, published 2008).
Like-named read-outs stand apart in the source and are kept apart here.

What was measured:
[1] = target: T1, vaccinia DNA topoisomerase IB (vTopo) (Vaccinia virus, UniProt P68698); assay: biochemical; details: for remaining activity at 100 µM: 0.5 h, read-out: % vTopo activity
[2] = target: T1, vaccinia DNA topoisomerase IB (vTopo); assay: biochemical
[3] = target: human topoisomerase type IB (hTopo) (Homo sapiens, UniProt P11387); assay: biochemical; assay type: biochemical
[4] = target: T2, vTopo (Vaccinia virus, UniProt P68698); assay type: biochemical
T2 construct: made in house

[5] = target: T2, vTopo; assay type: biochemical; remark: listed apart in the source
[6] = target: T2, vTopo; assay type: biochemical; details: equilibrium cleavage
[7] = target: T3, Y274F vTopo (Vaccinia virus, UniProt P68698, Y274F); assay type: binding
T3 construct: made in house

[8] = target: T2, vTopo; details: inhibition of vTopo; cited from earlier work
[9] = target: T4, human topo IB enzyme (Homo sapiens, UniProt P11387); details: cited from earlier work
T4 sequence (P11387 1-765): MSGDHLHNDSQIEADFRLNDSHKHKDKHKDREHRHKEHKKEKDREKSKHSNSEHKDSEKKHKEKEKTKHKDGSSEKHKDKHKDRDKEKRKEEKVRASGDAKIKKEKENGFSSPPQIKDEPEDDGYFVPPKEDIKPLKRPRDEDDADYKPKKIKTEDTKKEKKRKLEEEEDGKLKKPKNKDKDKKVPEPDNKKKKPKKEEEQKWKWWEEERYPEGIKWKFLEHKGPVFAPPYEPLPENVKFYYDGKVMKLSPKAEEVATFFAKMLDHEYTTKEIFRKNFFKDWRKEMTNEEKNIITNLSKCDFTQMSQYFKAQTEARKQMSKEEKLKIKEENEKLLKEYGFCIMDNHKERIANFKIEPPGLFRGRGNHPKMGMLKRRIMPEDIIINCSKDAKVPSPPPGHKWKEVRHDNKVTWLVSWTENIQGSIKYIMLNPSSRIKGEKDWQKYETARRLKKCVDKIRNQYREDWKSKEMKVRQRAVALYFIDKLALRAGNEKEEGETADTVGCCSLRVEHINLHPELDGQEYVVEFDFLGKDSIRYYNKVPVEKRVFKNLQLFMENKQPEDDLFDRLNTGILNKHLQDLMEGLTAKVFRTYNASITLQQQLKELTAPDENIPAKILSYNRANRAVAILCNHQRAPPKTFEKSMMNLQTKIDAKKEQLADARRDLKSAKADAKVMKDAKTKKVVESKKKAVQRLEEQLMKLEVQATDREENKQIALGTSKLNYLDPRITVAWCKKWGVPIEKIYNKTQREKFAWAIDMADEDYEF

[10] = read-out: % Inhibition (RNAse HTS)
[11] = read-out: % Inhibition (plasmid SC release assay)

O=C1C=C/C(=N/c2cccc3c(/N=C4/C=CC(=O)O4)cccc23)O1 [NSC 69575]
inhibition at 100 µM [1, 10]: 100%

CC(CCC(=O)O)(c1cc(Br)c(O)c(Br)c1)c1cc(Br)c(O)c(Br)c1 [NSC 21588]
inhibition at 1.2 µM [1, 10]: 100%
inhibition at 5 µM [2, 11]: 100%

O=C(O)c1cc2c(cc1S(=O)(=O)O)C1C(C3C2C2(Cl)C(Cl)=C(Cl)C3(Cl)C2(Cl)Cl)C2(Cl)C(Cl)=C(Cl)C1(Cl)C2(Cl)Cl (stereo not shown) [NSC 270718]
% Inhibition (RNAse HTS) ([1]; 10 µM): 100% @

COP(OCc1ccccc1)Oc1cccc2c1C(=O)c1cn3c(c1C2=O)C(C)c1ccccc1C3 (stereo not shown) [NSC 611615]
inhibition at 100 µM [1, 10]: 100%

O=[N+]([O-])/C=C/c1cc2ccccc2[nH]1 [NSC 150982]
remaining activity at 100 µM [1]: 54%

O=C(O)c1ccc2ccc(-c3cccc4cccc(C(=O)O)c34)cc2c1 [NSC 7810]
inhibition at 2.5 µM [1, 10]: 100%
inhibition at 10 µM [2, 11]: 100%

CCCCCC(O)C1C(=O)OC(C)O/C=C/C=C/C=CC=C/C=C(/C)C(O)CC(O)CC(O)CC(O)CC(O)CC(O)CC1O (stereo not shown) [NSC 3364]
inhibition at 100 µM [1, 10]: 100%

COc1ccc(/C=N/c2c(O)ccc3ccccc23)cc1OC [NSC 17061]
% Inhibition (RNAse HTS) ([1]; 100 µM): Partial @100 μM

COc1ccc2c(=O)cc(-c3ccncc3)oc2c1OC [NSC 54646]
inhibition at 10 µM [1, 10]: 100%

CC(C)(C)C(=O)C(C(c1ccccc1)N1CCOCC1)N1CCOCC1 (stereo not shown) [NSC 33571]
inhibition at 100 µM [1, 10]: 100%

Cc1ccc(NC(=[OH+])c2cc3ccccc3cc2O)c(C)c1.Cc1ccc(NC(=[OH+])c2cc3ccccc3cc2O)c(C)c1.[Ni] [NSC 306698]
% Inhibition (RNAse HTS) ([1]; 100 µM): 100% @100 μM

Cc1cc(O)c(-c2cc(O)c(C)cc2O)cc1O [NSC 2805]
remaining activity at 100 µM [1]: 30%

Oc1c(Cl)cc(C(c2cc(Cl)c(O)c(Cl)c2)C(c2cc(Cl)c(O)c(Cl)c2)c2cc(Cl)c(O)c(Cl)c2)cc1Cl [NSC 172033]
inhibition at 10 µM [1, 10]: 100%

Cc1c/c(=N\c2ccc3c(c2)c(N)cc(C)[n+]3C)nc(N)n1C [NSC 48223]
inhibition at 100 µM [1, 10]: 100%

O=C1CNCCCN2CCN(CCCNCC(=O)Nc3ccc(cc3)S(=O)(=O)c3ccc(cc3)NC(=O)CNCCCN3CCN(CCCNCC(=O)Nc4ccc(cc4)S(=O)(=O)c4ccc(cc4)N1)CC3)CC2 [NSC 95609]
inhibition at 100 µM [1, 10]: 100%

CCC(=C(C)C)c1ccc(Oc2cccc(C(=O)O)c2)cc1 [NSC 7962]
remaining activity at 100 µM [1]: 33%

Oc1cc(O)c2c(c1)OC(c1ccc(O)c(O)c1)C(O)C2c1c(O)cc(O)c2c1OC(c1ccc(O)c(O)c1)C(O)C2 (stereo not shown) [NSC 143099]
inhibition at 1 µM [1, 10]: 100%
inhibition at 5 µM [2, 11]: 100%

CN1CCN(c2ccc3[nH]c(-c4ccc5[nH]c(-c6ccc(O)cc6)nc5c4)nc3c2)CC1 [NSC 322921]
inhibition at 100 µM [1, 10]: 100%

C[C@]12CCC(=O)C=C1CCC1[C@@H]3CC[C@H](C(=O)OS(=O)(=O)c4ccc(Br)cc4)C3CC[C@@H]12 (stereo partly shown) [NSC 88915]
inhibition at 0.5 µM [1, 10]: 100%
Selectivity [3]: 833
inhibition at 5 µM [3, 11]: 50%
inhibition at 0.006 µM [2, 11]: 50%

O=C(O)C1C(C(=O)Nc2ccc3c(c2)Cc2ccccc2-3)C2(Cl)C(Cl)=C(Cl)C1(Cl)C2(Cl)Cl (stereo not shown) [NSC 73101]
inhibition at 100 µM [1, 10]: 100%

Cc1cc(N)c2cc(OCCOc3ccc4nc(C)cc(N)c4c3)ccc2n1 [NSC 22907]
inhibition at 100 µM [1, 10]: 100%

Cc1ccc(S(=O)(=O)C2C(C3COC(C)(C)O3)OC3OC(C)(C)OC32)cc1 (stereo not shown) [NSC 14163]
inhibition at 2.5 µM [1, 10]: 100%
Selectivity [3]: >3333
inhibition at 20 µM [3, 11]: 0%
inhibition at 5 µM [2, 11]: 50%

Nc1ccc(S(=O)(=O)c2ccc(NCN3C(=O)NC(=O)C(=O)C3=O)cc2)cc1 [NSC 34238]
inhibition at 100 µM [1, 10]: 100%

C/C(=N\C1CCCCC1)c1ccccc1O [NSC 120917]
remaining activity at 100 µM [1]: 28%
inhibition of the relaxation reaction [2]: complete inhibition

O=C(O)c1cc(-c2ccc(-c3ccc(-c4cc(C(=O)O)c5cc(Cl)ccc5n4)cc3)cc2)nc2ccc(Cl)cc12 [NSC 210627]
inhibition at 100 µM [1, 10]: 100%

CNCSC(C)c1ccc(O)c(O)c1 (stereo not shown) [NSC 39215]
remaining activity at 100 µM [1]: 27%

CN(C)CS/C(N)=N/[C@H](O)C(Cl)(Cl)Cl [NSC 14555]
% vTopo activity [1]: 28%
inhibition of the relaxation reaction [2]: complete inhibition

O=C(O)CCc1ccc(-c2ccccc2)[nH]1 [NSC 75600]
remaining activity at 100 µM [1]: 35%

COc1ccc2nc3cc(Cl)ccc3c(Nc3ccc(O)c(CN4CCN(C)CC4)c3)c2c1 [NSC 130813]
inhibition at 100 µM [1, 10]: 100%

Cc1cc(N)c2cc(NC(=O)Nc3ccc4nc(C)cc(N)c4c3)ccc2n1 [NSC 12155]
inhibition at 2.5 µM [1, 10]: 100%
inhibition at 0.5 µM [2, 11]: 40%

Cc1ccc2nc(-c3ccc(NC(=O)c4ccc(N)cc4)c(S(=O)(=O)O)c3)sc2c1 [NSC 26699]
inhibition at 100 µM [1, 10]: 100%

Nc1c(OCC(=O)O)ccc2cc(S(=O)(=O)O)ccc12 [NSC 16163]
inhibition at 100 µM [1, 10]: 100%

COc1cc(C)cc2c(-c3c(O)cc(O)c4c3CC(C)NC4C)cc(-c3cc(-c4c(O)cc(O)c5c4CC(C)NC5C)c4cc(C)cc(OC)c4c3O)c(O)c12 (stereo not shown) [NSC 661755]
inhibition at 10 µM [1, 10]: 100%

O=C(O)C(=O)Cc1ccc2c(c1)OCO2 [NSC 112983]
% covalent complex remaining [4]: 7%
decrease of fraction covalent complex remaining [4]: 50%
IC50 [1]: ~2 µM
Ki [1]: 1.6 ± 0.6 µM
remaining activity at 100 µM [1]: 9%
inhibition at 8 µM ([1]; read-out: inhibition of the ribonuclease reaction rate): ~75%
inhibition of the hTopo supercoil relaxation reaction [3]: no detectable inhibition
effect on the single-turnover cleavage rate ([5]; 8 μM): no effect
cleavage rate kcl ([5]; in the presence of 8 μM 112983 (2.3±0.06 in its absence)): 1.8 ± 0.05 s⁻¹
decrease of percent covalently bound DNA ([6]; 100 μM compound): 50%
decrease in the amount of covalent complex ([6]; 100 μM, vs control without compound): 2 fold
anisotropy of Y274F-DNA complex in presence of compound [7]: unchanged
IC50 [2]: ~7 µM
inhibition of the supercoil relaxation activity of vTopo [2]: complete inhibition

C/C(=N\CC(=O)O)c1ccccc1 [NSC 125214]
remaining activity at 100 µM [1]: 53%

O=C(O)c1cnc2c(ccc3ncc(C(=O)O)c(O)c32)c1O [NSC 1288884]
% Inhibition (RNAse HTS) ([1]; 100 µM): Partial @100 μM

CC(=O)c1ccccc1C(=O)c1ccc(C(=O)O)c(C(=O)O)c1 [NSC 28620]
inhibition at 1 µM [1, 10]: 100%
inhibition at 5 µM [2, 11]: 100%

Nc1ncnc2nc[nH]c12.Nc1ncnc2nc[nH]c12.[Cl][Pt]([Cl])([Cl])[Cl] [NSC 177395]
% Inhibition (RNAse HTS) ([1]; 100 µM): 100% @

Cc1cc(Cl)nc2ccc(Cc3ccc4nc(Cl)cc(C)c4c3)cc12 [NSC 109451]
% Inhibition (RNAse HTS) ([1]; 100 µM): Partial @100 μM

CC[C@@]1(O)C(=O)OCc2c1cc1n(c2=O)Cc2cc3ccccc3nc2-1 [NSC 100880]
% Inhibition (RNAse HTS) ([1]; 100 µM): Partial @100 μM

N#C/C(=C\Nc1ccccn1)C(=O)c1ccco1 [NSC 379552]
remaining activity at 100 µM [1]: 7%

O=C(O)CSCc1ccc(N=C=S)c(O)c1 [NSC 403376]
remaining activity at 100 µM [1]: 45%

O=C(O)Cc1c(O)ccc2ccccc12 [NSC 163339]
remaining activity at 100 µM [1]: 48%

CCC(O)[NH+]1CC[NH+](C(O)CC)CC1.[Cl][Pt-2]([Cl])([Cl])([Cl])([Cl])[Cl] (stereo not shown) [NSC 295558]
% Inhibition (RNAse HTS) ([1]; 100 µM): 100% @

COc1ccc2c3c([nH]c2c1)C1CC2C(CC(O)C(OC)C2C(=O)O)CN1CC3 (stereo not shown) [NSC 81463]
% Inhibition (RNAse HTS) ([1]; 100 µM): Partial @100 μM

CC1CCC2(C(=O)O)CCC3(C)C(=CCC4C5(C)CC(O)C(O)C(C)(CO)C5C(O)CC43C)C2C1C (stereo not shown) [NSC 88135]
inhibition at 100 µM [1, 10]: 100%

CO[C@@H]1[C@@H](OC(N)=O)[C@@H](O)[C@H](Oc2ccc3c(O)c(NC(=O)c4ccc(O)c(CC=C(C)C)c4)c(=O)oc3c2C)OC1(C)C [novobiocin]
Ki [8]: 325 µM
inhibition of the relaxation reaction [2]: complete inhibition
inhibition of human topo IB enzyme [9]: no inhibition

O=C(O)C(O)(c1ccc(-c2ccccc2)cc1)c1ccc(-c2ccccc2)cc1 [NSC 28086]
inhibition at 1 µM [1, 10]: 100%
inhibition at 5 µM [2, 11]: 100%

Oc1cc(O)c2c(c1)OC(c1ccc(O)c(O)c1)C(OC1(c3cc(O)c(O)c(O)c3)Oc3cc(O)cc(O)c3C(O)C1O)C2 (stereo not shown) [NSC 143101]
inhibition at 0.5 µM [1, 10]: 100%
inhibition at 0.5 µM [2, 11]: 70%

Nc1c(S(N)(=O)=O)cc(S(N)(=O)=O)cc1S(N)(=O)=O [NSC 25857]
inhibition at 100 µM [1, 10]: 100%

CC(CCC(=O)O)C1CCC2C3CCC4CC(O)CCC4(C)C3CCC12C (stereo not shown) [NSC 683770]
inhibition at 100 µM [1, 10]: 100%

CN(C)Cc1cc(O)c(O)c(CN(C)C)c1 [NSC 39225]
remaining activity at 100 µM [1]: 52%
